Reference: patent US9670231B2, “Fused tricyclic amide compounds as multiple kinase inhibitors” (BEIGENE, LTD., priority 2013, dated 2017)

Columns and labels:
Assay type in all cases: biochemical
[1] = target: EGFR T790M/L858R kinase domain (Homo sapiens (Human), UniProt P00533, L858R/T790M); assay: EGFR enzymatic assay, TR-FRET, EGFR T790M/L858R
Description: (§1) Compounds disclosed herein were tested against WT EGFR kinase domain (aa.669-1210, Carna Biosciences, 08-115), EGFR T790M/L858R kinase domain (aa.669-1210, Carna Biosciences, 08-510) and EGFR L858R kinase domain (aa.669-1210, Carna Biosciences, 08-502) in assays based on time-resolved fluorescence-resonance energy transfer methodology. The assay was carried out in 384-well low volume black plate in a reaction mixture containing EGFR kinases, 20 LM for EGFR WT and T790M/L858R, and 125 LM for EGFR L858R), biotin-TK substrate and 0-5 LM compounds in buffer containing 50 mM HEPES pH7.5, 10 mM MgCl2, 1 mM EGTA, 0.01% Brij-35, 2.5 mM DTT, 0.1% BSA. The kinase was incubated with the compounds disclosed herein at room temperature for 120 minutes and the reaction was initiated by the addition of ATP and biotin-TK substrate. After reaction at room temperature for 30 minutes, an equal volume of stop/detection solution was added according to the manufacture's instruction (CisBio Bioassays). The stop/detection solution contained TK-Antibody-Cryptate and Streptavidin-XL665 in buffer containing 25 mM Tris pH7.4, 400 mM KF, 50 mM EDTA, 0.01% BSA, 0.01% Triton X-100. Plates were sealed and incubated at room temperature for 1 hour, and the TR-FRET signals were read on BMG PHERAstar FS instrument. The IC50 of an inhibitor was derived from fitting the % inhibition data at each compound concentration to the four-parameter logistic equation by Graphpad Prism software.

EGFR L858R kinase domain = EGFR L858R kinase domain (Homo sapiens (Human), UniProt P00533, L858R); assay: EGFR enzymatic assay, TR-FRET, EGFR L858R
EGFR L858R kinase domain, sequence (P00533 669-1210 L858R): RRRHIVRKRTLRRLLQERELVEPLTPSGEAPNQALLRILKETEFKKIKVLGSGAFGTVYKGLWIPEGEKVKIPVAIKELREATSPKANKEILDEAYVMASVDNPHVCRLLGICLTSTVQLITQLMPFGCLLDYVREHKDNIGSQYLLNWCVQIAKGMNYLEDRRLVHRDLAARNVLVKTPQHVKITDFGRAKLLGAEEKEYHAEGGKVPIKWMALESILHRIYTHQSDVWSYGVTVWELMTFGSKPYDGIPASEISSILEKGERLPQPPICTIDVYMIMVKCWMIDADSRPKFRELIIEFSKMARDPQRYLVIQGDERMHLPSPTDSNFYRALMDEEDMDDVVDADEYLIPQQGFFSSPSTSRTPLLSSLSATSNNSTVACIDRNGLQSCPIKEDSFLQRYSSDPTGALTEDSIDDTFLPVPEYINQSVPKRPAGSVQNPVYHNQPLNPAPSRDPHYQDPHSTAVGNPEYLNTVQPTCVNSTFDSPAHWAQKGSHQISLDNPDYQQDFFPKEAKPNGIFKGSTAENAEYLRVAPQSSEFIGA
Description: as §1

WT EGFR kinase domain = WT EGFR kinase domain (Homo sapiens (Human), UniProt P00533); assay: EGFR enzymatic assay, TR-FRET, WT EGFR
WT EGFR kinase domain, sequence (P00533 669-1210): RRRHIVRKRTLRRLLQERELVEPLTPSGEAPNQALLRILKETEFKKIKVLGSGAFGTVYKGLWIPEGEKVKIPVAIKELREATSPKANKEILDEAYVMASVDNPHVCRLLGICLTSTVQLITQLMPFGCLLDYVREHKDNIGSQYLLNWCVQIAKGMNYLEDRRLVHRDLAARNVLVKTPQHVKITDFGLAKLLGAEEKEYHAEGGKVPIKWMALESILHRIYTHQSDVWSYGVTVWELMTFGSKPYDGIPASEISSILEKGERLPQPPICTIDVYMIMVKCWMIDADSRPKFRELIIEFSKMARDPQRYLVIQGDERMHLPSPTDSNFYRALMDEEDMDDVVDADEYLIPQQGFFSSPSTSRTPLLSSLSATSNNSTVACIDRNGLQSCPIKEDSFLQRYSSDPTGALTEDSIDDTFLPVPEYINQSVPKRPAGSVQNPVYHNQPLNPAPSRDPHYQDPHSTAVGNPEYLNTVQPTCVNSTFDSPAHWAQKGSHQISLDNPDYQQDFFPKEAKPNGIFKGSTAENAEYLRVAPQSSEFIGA
Description: as §1

B-Raf (V600E) = B-Raf (V600E) (Homo sapiens (Human), UniProt P15056, V600E); assay: Raf IC50 assay, TR-FRET, B-Raf (V600E); conditions: 0.1 mM ATP; read-out: IC50 BRAF-V600E
B-Raf (V600E), sequence (P15056 whole entry V600E): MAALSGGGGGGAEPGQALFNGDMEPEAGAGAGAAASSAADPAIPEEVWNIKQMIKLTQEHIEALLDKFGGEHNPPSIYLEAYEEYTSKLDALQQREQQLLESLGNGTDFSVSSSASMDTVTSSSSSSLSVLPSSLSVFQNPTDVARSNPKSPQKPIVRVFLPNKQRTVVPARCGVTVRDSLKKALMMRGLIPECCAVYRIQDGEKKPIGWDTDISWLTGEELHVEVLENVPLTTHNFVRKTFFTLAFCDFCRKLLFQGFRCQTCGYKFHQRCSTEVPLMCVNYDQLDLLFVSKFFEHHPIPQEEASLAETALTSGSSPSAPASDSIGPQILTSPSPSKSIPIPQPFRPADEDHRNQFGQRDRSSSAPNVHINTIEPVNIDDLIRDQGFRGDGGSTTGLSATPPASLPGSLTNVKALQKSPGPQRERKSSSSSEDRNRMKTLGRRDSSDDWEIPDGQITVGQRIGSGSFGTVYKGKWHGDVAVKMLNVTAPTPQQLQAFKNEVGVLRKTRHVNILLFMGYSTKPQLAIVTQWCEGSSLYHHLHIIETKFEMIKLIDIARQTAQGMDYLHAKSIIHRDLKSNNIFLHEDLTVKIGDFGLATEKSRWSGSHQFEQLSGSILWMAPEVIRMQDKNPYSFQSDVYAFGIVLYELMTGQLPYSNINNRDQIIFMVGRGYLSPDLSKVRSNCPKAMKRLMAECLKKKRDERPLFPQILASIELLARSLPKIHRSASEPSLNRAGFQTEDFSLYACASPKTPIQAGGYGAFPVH
Description: The enzyme was incubated with the compounds disclosed herein at room temperature for 60 minutes and the reactions were initiated by the addition of ATP and GST-MEK1. After reaction at room temperature for 60 minutes, an equal volume of stop/detection solution was added according to the manufacture's instruction (CisBio Bioassays). […] The IC50 for each compound was derived from fitting the dose-response % inhibition data to the four-parameter logistic model by Graphpad Prism software.

EGFR T790M/L858R kinase domain, sequence (P00533 669-1210 T790M/L858R): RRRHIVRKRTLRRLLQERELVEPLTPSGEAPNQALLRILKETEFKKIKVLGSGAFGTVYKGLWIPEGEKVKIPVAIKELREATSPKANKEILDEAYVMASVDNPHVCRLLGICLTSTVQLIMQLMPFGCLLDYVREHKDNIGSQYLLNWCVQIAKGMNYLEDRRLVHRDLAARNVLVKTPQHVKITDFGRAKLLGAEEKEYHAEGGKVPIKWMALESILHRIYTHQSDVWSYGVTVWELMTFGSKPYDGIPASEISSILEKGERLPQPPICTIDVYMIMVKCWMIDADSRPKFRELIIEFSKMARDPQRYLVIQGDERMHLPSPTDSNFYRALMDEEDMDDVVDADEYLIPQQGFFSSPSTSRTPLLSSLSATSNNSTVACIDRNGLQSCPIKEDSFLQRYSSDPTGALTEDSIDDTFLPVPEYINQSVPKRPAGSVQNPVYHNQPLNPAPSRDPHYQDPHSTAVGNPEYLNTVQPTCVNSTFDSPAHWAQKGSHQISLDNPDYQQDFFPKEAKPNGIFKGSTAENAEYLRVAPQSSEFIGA

Row | IC50 [1] | IC50 (EGFR L858R kinase domain) | IC50 (WT EGFR kinase domain) | IC50 (B-Raf (V600E)) | Compound
1 | 1300 nM | 230 nM | 628 nM | 24 nM | CCCCCCCCCC(=O)N[C@@H]1[C@H]2Oc3ccc(Oc4ccnc5c4CCC(=O)N5)cc3[C@@H]12 [Compound 1.70]
2 | 21 nM | 2.1 nM | 2.7 nM | 10 nM | CN(C)C1CCN(c2ccc(C(=O)N[C@@H]3[C@H]4Oc5ccc(Oc6ccnc7c6CCC(=O)N7)cc5[C@@H]34)cc2C(F)(F)F)CC1 [Compound 1.71]
3 | 32 nM | 1 nM | 3 nM | 7.7 nM | COc1cc(C(=O)N[C@@H]2[C@H]3Oc4ccc(Oc5ccnc6c5CCC(=O)N6)cc4[C@@H]23)ccc1CN1CCN(C)CC1 [Compound 1.72]
4 | 34 nM | 0.91 nM | 1.8 nM | 6.9 nM | CCN1CCN(Cc2ccc(C(=O)N[C@@H]3[C@H]4Oc5ccc(Oc6ccnc7c6CCC(=O)N7)cc5[C@@H]34)cc2OC)CC1 [Compound 1.73]
5 | 0.2 nM | 0.17 nM | 0.74 nM | 10 nM | CCN1CCC(Cc2ccc(C(=O)N[C@@H]3[C@H]4Oc5ccc(Oc6ccnc7c6CCC(=O)N7)cc5[C@@H]34)cc2C(F)(F)F)CC1 [Compound 1.74, 4-((1-ethylpiperidin-4-yl)methyl)-N-((1S,1aS,6bS)-5-((7-oxo-5,6,7,8-tetrahydro-1,8-naphthyridin-4-yl)oxy)-1a,6b-dihydro-1H-cyclopropa[b]benzofuran-1-yl)-3-(trifluoromethyl)benzamide]
6 | 0.18 nM | 0.26 nM | 1.3 nM | 21 nM | CCN1CCC(=Cc2ccc(C(=O)N[C@@H]3[C@H]4Oc5ccc(Oc6ccnc7c6CCC(=O)N7)cc5[C@@H]34)cc2C(F)(F)F)CC1 [Compound 1.75, 4-((1-ethylpiperidin-4-ylidene)methyl)-N-((1S,1aS,6bS)-5-((7-oxo-5,6,7,8-tetrahydro-1,8-naphthyridin-4-yl)oxy)-1a,6b-dihydro-1H-cyclopropa[b]benzofuran-1-yl)-3-(trifluoromethyl)benzamide]
7 | 31 nM | 18 nM | 4.2 nM | 3.7 nM | O=C1CCc2c(Oc3ccc4c(c3)[C@H]3[C@H](NC(=O)c5ccc(CO)c(C(F)(F)F)c5)[C@H]3O4)ccnc2N1 [Compound 1.76, 4-(hydroxymethyl)-N-((1S,1aS,6bS)-5-((7-oxo-5,6,7,8-tetrahydro-1,8-naphthyridin-4-yl)oxy)-1a,6b-dihydro-1H-cyclopropa[b]benzofuran-1-yl)-3-(trifluoromethyl)benzamide]
8 | 8 nM | 0.79 nM | 1.2 nM | 10 nM | CCN1CCN(Cc2ccc(C(=O)N[C@@H]3[C@H]4Oc5ccc(Oc6ccnc7c6CCC(=O)N7)cc5[C@@H]34)cc2OC(F)(F)F)CC1 [Compound 1.78, 4-((4-ethylpiperazin-1-yl)methyl)-N-((1S,1aS,6bS)-5-((7-oxo-5,6,7,8-tetrahydro-1,8-naphthyridin-4-yl)oxy)-1a,6b-dihydro-1H-cyclopropa[b]benzofuran-1-yl)-3-(trifluoromethoxy)benzamide]
9 | 7.3 nM | 4.1 nM | 6.8 nM | 49 nM | CNC(=O)c1cc(Oc2ccc3c(c2)[C@H]2[C@H](NC(=O)c4ccc(CN5CCN(C)CC5)c(C(F)(F)F)c4)[C@H]2O3)ccn1 [Compound 2.4]
10 | 0.82 nM | 0.47 nM | 4.1 nM | 58 nM | CCN1CCN(Cc2ccc(C(=O)N[C@@H]3[C@H]4Oc5ccc(Oc6ccnc(N)c6)cc5[C@@H]34)cc2C(F)(F)F)CC1 [Compound 2.5, N-((1S,1aS,6bS)-5-((2-aminopyridin-4-yl)oxy)-1a,6b-dihydro-1H-cyclopropa[b]benzofuran-1-yl)-4-((4-ethylpiperazin-1-yl)methyl)-3-(trifluoromethyl)benzamide]
